Laboratory results: PubChem BioAssay AID1963853 (Molecular Pharmacology Branch, DTP, NCI, 2024)

System: 266295-075-R-J1-PDC spheroid viability
Experiment: Anticancer human tumor 266295-075-R-J1-PDC patient-derived head and neck squamous carcinoma cell line growth inhibition [POLQ]
Conditions: spheroids with HUVEC and MSC; for IC50: curve of first compound; for viability, T/C: stronger effect = lower value
Outline: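 Growth inhibition in 3D: complex spheroids (tumor PDC, HUVEC, MSC) treated with POLQ inhibitor combinations; where Cmax unknown, highest tested concentration 10 microM, except SN-38 at 1 microM.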

[1] = second compound 0.0316 µM, first compound 0.0316 µM
[2] = second compound 0.0316 µM, first compound 0.1 µM
[3] = second compound 0.0316 µM, first compound 0.316 µM
[4] = second compound 0.0316 µM, first compound 1 µM
[5] = second compound 0.0316 µM, first compound 3.16 µM
[6] = second compound 0.0316 µM, first compound 10 µM
[7] = second compound 0.1 µM, first compound 0.0316 µM
[8] = second compound 0.1 µM, first compound 0.1 µM
[9] = second compound 0.1 µM, first compound 0.316 µM
[10] = second compound 0.1 µM, first compound 1 µM
[11] = second compound 0.1 µM, first compound 3.16 µM
[12] = second compound 0.1 µM, first compound 10 µM
[13] = second compound 0.316 µM, first compound 0.0316 µM
[14] = second compound 0.316 µM, first compound 0.1 µM
[15] = second compound 0.316 µM, first compound 0.316 µM
[16] = second compound 0.316 µM, first compound 1 µM
[17] = second compound 0.316 µM, first compound 3.16 µM
[18] = second compound 0.316 µM, first compound 10 µM
[19] = second compound 1 µM, first compound 0.0316 µM
[20] = second compound 1 µM, first compound 0.1 µM
[21] = second compound 1 µM, first compound 0.316 µM
[22] = second compound 1 µM, first compound 1 µM
[23] = second compound 1 µM, first compound 3.16 µM
[24] = second compound 1 µM, first compound 10 µM
[25] = second compound 3.16 µM, first compound 0.0316 µM
[26] = second compound 3.16 µM, first compound 0.1 µM
[27] = second compound 3.16 µM, first compound 0.316 µM
[28] = second compound 3.16 µM, first compound 1 µM
[29] = second compound 3.16 µM, first compound 3.16 µM
[30] = second compound 3.16 µM, first compound 10 µM
[31] = second compound 10 µM, first compound 0.0316 µM
[32] = second compound 10 µM, first compound 0.1 µM
[33] = second compound 10 µM, first compound 0.316 µM
[34] = second compound 10 µM, first compound 1 µM
[35] = second compound 10 µM, first compound 3.16 µM
[36] = second compound 10 µM, first compound 10 µM
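Also: spheroids exposed to compounds for seven days before readout.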

C=CC(=O)N1CCN(c2nc(=O)n(-c3c(C)ccnc3C(C)C)c3nc(-c4c(O)cccc4F)c(F)cc23)C(C)C1 (stereo not drawn) + Cc1cccc(N(C)C(=O)C2C(O)CCN2c2nc(C)cc(C(F)(F)F)c2C#N)c1
IC50 (second compound 0.0316 µM): > 10 µM | IC50 (second compound 0.1 µM): > 10 µM | IC50 (second compound 0.316 µM): > 10 µM | IC50 (second compound 1 µM): > 10 µM | IC50 (second compound 3.16 µM): > 10 µM | IC50 (second compound 10 µM): > 10 µM | viability, T/C [1]: 95.2% | viability, T/C [2]: 89.3% | viability, T/C [3]: 97% | viability, T/C [4]: 110% | viability, T/C [5]: 140% | viability, T/C [6]: 126% | viability, T/C [7]: 91.5% | viability, T/C [8]: 92.7% | viability, T/C [9]: 96.2% | viability, T/C [10]: 115% | viability, T/C [11]: 123% | viability, T/C [12]: 131% | viability, T/C [13]: 93.6% | viability, T/C [14]: 116% | viability, T/C [15]: 100% | viability, T/C [16]: 126% | viability, T/C [17]: 116% | viability, T/C [18]: 121% | viability, T/C [19]: 91.6% | viability, T/C [20]: 108% | viability, T/C [21]: 112% | viability, T/C [22]: 103% | viability, T/C [23]: 125% | viability, T/C [24]: 130% | viability, T/C [25]: 99.5% | viability, T/C [26]: 105% | viability, T/C [27]: 118% | viability, T/C [28]: 133% | viability, T/C [29]: 126% | viability, T/C [30]: 116% | viability, T/C [31]: 117% | viability, T/C [32]: 108% | viability, T/C [33]: 128% | viability, T/C [34]: 120% | viability, T/C [35]: 132% | viability, T/C [36]: 105%

CC(C)n1c(=O)n(C)c2cnc3cc(F)c(-c4ccc(OCCCN5CCCCC5)nc4)cc3c21 + Cc1cccc(N(C)C(=O)C2C(O)CCN2c2nc(C)cc(C(F)(F)F)c2C#N)c1
IC50 (second compound 0.0316 µM): > 10 µM | IC50 (second compound 0.1 µM): > 10 µM | IC50 (second compound 0.316 µM): > 10 µM | IC50 (second compound 1 µM): > 10 µM | IC50 (second compound 3.16 µM): > 10 µM | IC50 (second compound 10 µM): > 10 µM | viability, T/C [1]: 101% | viability, T/C [2]: 127% | viability, T/C [3]: 95.2% | viability, T/C [4]: 73.6% | viability, T/C [5]: 93.2% | viability, T/C [6]: 60.7% | viability, T/C [7]: 99.1% | viability, T/C [8]: 111% | viability, T/C [9]: 98.9% | viability, T/C [10]: 83.4% | viability, T/C [11]: 73.5% | viability, T/C [12]: 69.8% | viability, T/C [13]: 125% | viability, T/C [14]: 118% | viability, T/C [15]: 96.8% | viability, T/C [16]: 90.8% | viability, T/C [17]: 88.1% | viability, T/C [18]: 61.9% | viability, T/C [19]: 103% | viability, T/C [20]: 90.8% | viability, T/C [21]: 95.3% | viability, T/C [22]: 91.3% | viability, T/C [23]: 78.4% | viability, T/C [24]: 60.3% | viability, T/C [25]: 91.8% | viability, T/C [26]: 95.4% | viability, T/C [27]: 88.8% | viability, T/C [28]: 90.8% | viability, T/C [29]: 80.2% | viability, T/C [30]: 64.9% | viability, T/C [31]: 97.3% | viability, T/C [32]: 103% | viability, T/C [33]: 96.5% | viability, T/C [34]: 100% | viability, T/C [35]: 78.9% | viability, T/C [36]: 67.1%

CCc1cc2c(N3CCc4c(cc(Cn5ccnc5)cc4-c4cn(C)nc4C(F)(F)F)C3=O)ccnc2c(OC)n1 + Cc1cccc(N(C)C(=O)C2C(O)CCN2c2nc(C)cc(C(F)(F)F)c2C#N)c1
IC50 (second compound 0.0316 µM): > 10 µM | IC50 (second compound 0.1 µM): > 10 µM | IC50 (second compound 0.316 µM): > 10 µM | IC50 (second compound 1 µM): > 10 µM | IC50 (second compound 3.16 µM): > 10 µM | IC50 (second compound 10 µM): > 10 µM | viability, T/C [1]: 90.4% | viability, T/C [2]: 101% | viability, T/C [3]: 78.6% | viability, T/C [4]: 115% | viability, T/C [5]: 138% | viability, T/C [6]: 126% | viability, T/C [7]: 98.6% | viability, T/C [8]: 90% | viability, T/C [9]: 105% | viability, T/C [10]: 99.6% | viability, T/C [11]: 119% | viability, T/C [12]: 124% | viability, T/C [13]: 119% | viability, T/C [14]: 102% | viability, T/C [15]: 80.3% | viability, T/C [16]: 92.8% | viability, T/C [17]: 130% | viability, T/C [18]: 104% | viability, T/C [19]: 86.7% | viability, T/C [20]: 105% | viability, T/C [21]: 90.6% | viability, T/C [22]: 110% | viability, T/C [23]: 141% | viability, T/C [24]: 104% | viability, T/C [25]: 107% | viability, T/C [26]: 82.1% | viability, T/C [27]: 104% | viability, T/C [28]: 103% | viability, T/C [29]: 122% | viability, T/C [30]: 118% | viability, T/C [31]: 97.8% | viability, T/C [32]: 90.6% | viability, T/C [33]: 110% | viability, T/C [34]: 132% | viability, T/C [35]: 127% | viability, T/C [36]: 144%

COc1cc2cc(C(=O)CCC(=O)O)sc2cc1OC + Cc1cccc(N(C)C(=O)C2C(O)CCN2c2nc(C)cc(C(F)(F)F)c2C#N)c1
IC50 (second compound 0.0316 µM): > 10 µM | IC50 (second compound 0.1 µM): > 10 µM | IC50 (second compound 0.316 µM): > 10 µM | IC50 (second compound 1 µM): > 10 µM | IC50 (second compound 3.16 µM): > 10 µM | IC50 (second compound 10 µM): > 10 µM | viability, T/C [1]: 118% | viability, T/C [2]: 112% | viability, T/C [3]: 90% | viability, T/C [4]: 117% | viability, T/C [5]: 95.7% | viability, T/C [6]: 96% | viability, T/C [7]: 113% | viability, T/C [8]: 103% | viability, T/C [9]: 82.9% | viability, T/C [10]: 111% | viability, T/C [11]: 115% | viability, T/C [12]: 115% | viability, T/C [13]: 134% | viability, T/C [14]: 112% | viability, T/C [15]: 92.6% | viability, T/C [16]: 114% | viability, T/C [17]: 87% | viability, T/C [18]: 84.8% | viability, T/C [19]: 106% | viability, T/C [20]: 87.2% | viability, T/C [21]: 126% | viability, T/C [22]: 104% | viability, T/C [23]: 110% | viability, T/C [24]: 80.3% | viability, T/C [25]: 101% | viability, T/C [26]: 112% | viability, T/C [27]: 116% | viability, T/C [28]: 109% | viability, T/C [29]: 98.2% | viability, T/C [30]: 91.3% | viability, T/C [31]: 97.2% | viability, T/C [32]: 109% | viability, T/C [33]: 102% | viability, T/C [34]: 104% | viability, T/C [35]: 109% | viability, T/C [36]: 89.2%
